Experimental data: PubChem BioAssay (NCI)
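GI50: concentration for 50% inhibition of growth. The concentration for full growth arrest is given as TGI.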

What was measured:
Assay in all cases: DTP human tumour cell line panel, 384-well format
HL-60(TB) leukemia = tested on: HL-60(TB) leukemia
M14 melanoma = tested on: M14 melanoma
SK-MEL-28 melanoma = tested on: SK-MEL-28 melanoma
DU-145 prostate = tested on: DU-145 prostate
NCI/ADR-RES ovarian = tested on: NCI/ADR-RES ovarian
NCI-H23 lung = tested on: NCI-H23 lung
SN12C renal = tested on: SN12C renal
HCT-15 colon = tested on: HCT-15 colon
CCRF-CEM leukemia = tested on: CCRF-CEM leukemia
SF-268 CNS = tested on: SF-268 CNS
HOP-62 NSCLC = tested on: HOP-62 NSCLC
OVCAR-8 ovarian = tested on: OVCAR-8 ovarian
HCC-2998 colon = tested on: HCC-2998 colon
SF-295 CNS = tested on: SF-295 CNS
MALME-3M melanoma = tested on: MALME-3M melanoma
U251 glioblastoma = tested on: U251 glioblastoma
SK-OV-3 ovarian = tested on: SK-OV-3 ovarian
SNB-19 CNS = tested on: SNB-19 CNS
KM12 colon = tested on: KM12 colon
SK-MEL-2 melanoma = tested on: SK-MEL-2 melanoma
SW-620 colon = tested on: SW-620 colon
MDA-MB-231 breast = tested on: MDA-MB-231 breast
EKVX NSCLC = tested on: EKVX NSCLC
NCI-H322M lung = tested on: NCI-H322M lung
SF-539 CNS = tested on: SF-539 CNS
MCF7 breast = tested on: MCF7 breast
RXF 393 renal = tested on: RXF 393 renal
A549 NSCLC = tested on: A549 NSCLC

SMILES: C[C@]1(c2nc3c(C(N)=O)cccc3[nH]2)CCCN1
- TGI (HL-60(TB) leukemia): > 100 µM
- GI50 (M14 melanoma): > 100 µM
- TGI (M14 melanoma): > 100 µM
- GI50 (SK-MEL-28 melanoma): > 100 µM
- TGI (SK-MEL-28 melanoma): > 100 µM
- GI50 (DU-145 prostate): > 100 µM
- TGI (DU-145 prostate): > 100 µM
- GI50 (NCI/ADR-RES ovarian): > 100 µM
- TGI (NCI/ADR-RES ovarian): > 100 µM
- GI50 (NCI-H23 lung): 78.7 µM
- TGI (NCI-H23 lung): > 100 µM
- GI50 (SN12C renal): 85.2 µM
- TGI (SN12C renal): > 100 µM
- GI50 (HCT-15 colon): > 100 µM
- TGI (HCT-15 colon): > 100 µM
- GI50 (CCRF-CEM leukemia): > 100 µM
- TGI (CCRF-CEM leukemia): > 100 µM
- GI50 (SF-268 CNS): > 100 µM
- TGI (SF-268 CNS): > 100 µM
- GI50 (HOP-62 NSCLC): 40.7 µM
- TGI (HOP-62 NSCLC): > 100 µM
- GI50 (OVCAR-8 ovarian): > 100 µM
- TGI (OVCAR-8 ovarian): > 100 µM
- GI50 (HCC-2998 colon): 26.6 µM
- TGI (HCC-2998 colon): > 100 µM
- GI50 (SF-295 CNS): 38.9 µM
- TGI (SF-295 CNS): > 100 µM
- GI50 (MALME-3M melanoma): > 100 µM
- TGI (MALME-3M melanoma): > 100 µM
- GI50 (U251 glioblastoma): > 100 µM
- TGI (U251 glioblastoma): > 100 µM
- GI50 (SK-OV-3 ovarian): > 100 µM
- TGI (SK-OV-3 ovarian): > 100 µM
- GI50 (SNB-19 CNS): > 100 µM
- TGI (SNB-19 CNS): > 100 µM
- GI50 (KM12 colon): > 100 µM
- TGI (KM12 colon): > 100 µM
- GI50 (SK-MEL-2 melanoma): > 100 µM
- TGI (SK-MEL-2 melanoma): > 100 µM
- GI50 (SW-620 colon): > 100 µM
- TGI (SW-620 colon): > 100 µM
- GI50 (MDA-MB-231 breast): > 100 µM
- TGI (MDA-MB-231 breast): > 100 µM
- GI50 (EKVX NSCLC): > 100 µM
- TGI (EKVX NSCLC): > 100 µM
- GI50 (NCI-H322M lung): > 100 µM
- TGI (NCI-H322M lung): > 100 µM
- GI50 (SF-539 CNS): > 100 µM
- TGI (SF-539 CNS): > 100 µM
- GI50 (MCF7 breast): 72.9 µM
- TGI (MCF7 breast): > 100 µM
- GI50 (RXF 393 renal): > 100 µM
- TGI (RXF 393 renal): > 100 µM
- GI50 (A549 NSCLC): > 100 µM
- TGI (A549 NSCLC): > 100 µM
